From patent publication US20260109715A1, “IMIDAZOPYRIDINE DERIVATIVES WITH BICYCLIC STRUCTURE” (PUBLIC UNIVERSITY CORPORATION YOKOHAMA CITY UNIVERSITY, priority 2022, published 2026)
pEC50, pIC50: −log10 of the molar value.

Legend:
[1] = target: human SMG1 enzyme (Homo sapiens, UniProt Q96Q15); assay: Measurement of SMG1 kinase activity (ADP-Glo Kinase Assay); format: biochemical; details: purified human SMG1 enzyme 5 nM, Upf1 peptide substrate, ATP 4 μM; qAC50 synonymous with IC50; read-out: Test Example 1 ADP-Glo IC50
How it was run: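 ADP-Glo luminescence readout of ADP made by 5 nM human SMG1 acting on 8 μg/mL Upf1 peptide with 4 μM ATP for 60 min at room temperature, after a 15 min enzyme–compound preincubation (1% DMSO; pH 7.5 HEPES, MnCl2). Activity scaled between DMSO and no-enzyme wells; IC50 by four-parameter logistic regression.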

[2] = test system: Snhg1 transcript (NMD target gene) in EMT6 murine breast cancer cell line; assay: Measurement of NMD inhibitory activity in cells (increase in Snhg1 transcript, real-time PCR); design: species or system mouse; details: Mus musculus, 6 hours treatment, concentration giving 1/2 of maximum Snhg1 fold change of positive control, read-out: Test Example 2 Cell-based Snhg1 EC50
How it was run: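 EMT6 cells treated with serially diluted compound (2% DMSO final) for 6 h; Snhg1 transcript quantified by real-time PCR (ΔΔCT, Tbp endogenous control, untreated wells set to 1). EC50 taken as concentration giving half the maximum fold change of a known NMD inhibitor positive control.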

[3] = test system: Snhg1 transcript in tumor tissues of mice subcutaneously implanted with EMT6 murine breast cancer cell line; assay: Evaluation of NMD inhibitory activity in vivo (Snhg1 transcript in EMT6 tumor tissue after oral administration); details: 6 hours after administration, BALB/c mice
Procedure: The NMD inhibitory activity of a compound of the present invention or a pharmaceutically acceptable salt thereof in vivo can be measured, for example, by the method described below. Using mice subcutaneously implanted with EMT6 murine breast cancer cell line, tumor tissues 6 hours after oral administration of a test substance are excised, and the increase in Snhg1 transcript is quantified as an indicator of NMD inhibition in the tumor, in the same manner as in the in vitro method.
In this test, NMD inhibitory activity in tumor tissues was evaluated when a test substance was orally administered to mice subcutaneously implanted with EMT6 murine breast cancer cell line. As an indicator of NMD inhibitory activity, the increase in the transcript of Snhg1, an NMD target gene, was quantified. First, BALB/c mice were subcutaneously implanted with EMT6 cells (ATCC), and engraftment was confirmed 7 days later. Six hours after administration of the test substance, mice were euthanized, and the collected tumor tissues were cryopreserved. RNA was extracted from the tumor tissues using the illustra RNAspin Mini RNA Isolation kit (GE Healthcare Life Sciences). After synthesizing cDNA using the High-Capacity cDNA Reverse Transcription Kits (Applied Biosystems, 4368813), the cDNA was mixed with PrimeTime Gene Expression Master Mix (Integrated DNA Technologies) and various probes, and gene expression was quantified by QuantStudio 6 Flex (Thermo Fisher Scientific Inc.). For the probe for the Snhg1 gene, which is an NMD target, Mm.PT.58.44039547 (FAM) (Integrated DNA Technologies) was used, and for the probe for the Gapdh gene, which is an endogenous control, Mm99999915_g2 (VIC-PL) (Applied Biosystems) was used. The relative quantification of Snhg1 transcripts in each sample was calculated by the ΔΔCT method using Gapdh as an endogenous control, and the expression level of Snhg1 in each test substance administration group was calculated by setting the expression level of the Vehicle group (0.5% methylcellulose administration group) to 1.

Chain of human SMG1 enzyme (Q96Q15 whole entry): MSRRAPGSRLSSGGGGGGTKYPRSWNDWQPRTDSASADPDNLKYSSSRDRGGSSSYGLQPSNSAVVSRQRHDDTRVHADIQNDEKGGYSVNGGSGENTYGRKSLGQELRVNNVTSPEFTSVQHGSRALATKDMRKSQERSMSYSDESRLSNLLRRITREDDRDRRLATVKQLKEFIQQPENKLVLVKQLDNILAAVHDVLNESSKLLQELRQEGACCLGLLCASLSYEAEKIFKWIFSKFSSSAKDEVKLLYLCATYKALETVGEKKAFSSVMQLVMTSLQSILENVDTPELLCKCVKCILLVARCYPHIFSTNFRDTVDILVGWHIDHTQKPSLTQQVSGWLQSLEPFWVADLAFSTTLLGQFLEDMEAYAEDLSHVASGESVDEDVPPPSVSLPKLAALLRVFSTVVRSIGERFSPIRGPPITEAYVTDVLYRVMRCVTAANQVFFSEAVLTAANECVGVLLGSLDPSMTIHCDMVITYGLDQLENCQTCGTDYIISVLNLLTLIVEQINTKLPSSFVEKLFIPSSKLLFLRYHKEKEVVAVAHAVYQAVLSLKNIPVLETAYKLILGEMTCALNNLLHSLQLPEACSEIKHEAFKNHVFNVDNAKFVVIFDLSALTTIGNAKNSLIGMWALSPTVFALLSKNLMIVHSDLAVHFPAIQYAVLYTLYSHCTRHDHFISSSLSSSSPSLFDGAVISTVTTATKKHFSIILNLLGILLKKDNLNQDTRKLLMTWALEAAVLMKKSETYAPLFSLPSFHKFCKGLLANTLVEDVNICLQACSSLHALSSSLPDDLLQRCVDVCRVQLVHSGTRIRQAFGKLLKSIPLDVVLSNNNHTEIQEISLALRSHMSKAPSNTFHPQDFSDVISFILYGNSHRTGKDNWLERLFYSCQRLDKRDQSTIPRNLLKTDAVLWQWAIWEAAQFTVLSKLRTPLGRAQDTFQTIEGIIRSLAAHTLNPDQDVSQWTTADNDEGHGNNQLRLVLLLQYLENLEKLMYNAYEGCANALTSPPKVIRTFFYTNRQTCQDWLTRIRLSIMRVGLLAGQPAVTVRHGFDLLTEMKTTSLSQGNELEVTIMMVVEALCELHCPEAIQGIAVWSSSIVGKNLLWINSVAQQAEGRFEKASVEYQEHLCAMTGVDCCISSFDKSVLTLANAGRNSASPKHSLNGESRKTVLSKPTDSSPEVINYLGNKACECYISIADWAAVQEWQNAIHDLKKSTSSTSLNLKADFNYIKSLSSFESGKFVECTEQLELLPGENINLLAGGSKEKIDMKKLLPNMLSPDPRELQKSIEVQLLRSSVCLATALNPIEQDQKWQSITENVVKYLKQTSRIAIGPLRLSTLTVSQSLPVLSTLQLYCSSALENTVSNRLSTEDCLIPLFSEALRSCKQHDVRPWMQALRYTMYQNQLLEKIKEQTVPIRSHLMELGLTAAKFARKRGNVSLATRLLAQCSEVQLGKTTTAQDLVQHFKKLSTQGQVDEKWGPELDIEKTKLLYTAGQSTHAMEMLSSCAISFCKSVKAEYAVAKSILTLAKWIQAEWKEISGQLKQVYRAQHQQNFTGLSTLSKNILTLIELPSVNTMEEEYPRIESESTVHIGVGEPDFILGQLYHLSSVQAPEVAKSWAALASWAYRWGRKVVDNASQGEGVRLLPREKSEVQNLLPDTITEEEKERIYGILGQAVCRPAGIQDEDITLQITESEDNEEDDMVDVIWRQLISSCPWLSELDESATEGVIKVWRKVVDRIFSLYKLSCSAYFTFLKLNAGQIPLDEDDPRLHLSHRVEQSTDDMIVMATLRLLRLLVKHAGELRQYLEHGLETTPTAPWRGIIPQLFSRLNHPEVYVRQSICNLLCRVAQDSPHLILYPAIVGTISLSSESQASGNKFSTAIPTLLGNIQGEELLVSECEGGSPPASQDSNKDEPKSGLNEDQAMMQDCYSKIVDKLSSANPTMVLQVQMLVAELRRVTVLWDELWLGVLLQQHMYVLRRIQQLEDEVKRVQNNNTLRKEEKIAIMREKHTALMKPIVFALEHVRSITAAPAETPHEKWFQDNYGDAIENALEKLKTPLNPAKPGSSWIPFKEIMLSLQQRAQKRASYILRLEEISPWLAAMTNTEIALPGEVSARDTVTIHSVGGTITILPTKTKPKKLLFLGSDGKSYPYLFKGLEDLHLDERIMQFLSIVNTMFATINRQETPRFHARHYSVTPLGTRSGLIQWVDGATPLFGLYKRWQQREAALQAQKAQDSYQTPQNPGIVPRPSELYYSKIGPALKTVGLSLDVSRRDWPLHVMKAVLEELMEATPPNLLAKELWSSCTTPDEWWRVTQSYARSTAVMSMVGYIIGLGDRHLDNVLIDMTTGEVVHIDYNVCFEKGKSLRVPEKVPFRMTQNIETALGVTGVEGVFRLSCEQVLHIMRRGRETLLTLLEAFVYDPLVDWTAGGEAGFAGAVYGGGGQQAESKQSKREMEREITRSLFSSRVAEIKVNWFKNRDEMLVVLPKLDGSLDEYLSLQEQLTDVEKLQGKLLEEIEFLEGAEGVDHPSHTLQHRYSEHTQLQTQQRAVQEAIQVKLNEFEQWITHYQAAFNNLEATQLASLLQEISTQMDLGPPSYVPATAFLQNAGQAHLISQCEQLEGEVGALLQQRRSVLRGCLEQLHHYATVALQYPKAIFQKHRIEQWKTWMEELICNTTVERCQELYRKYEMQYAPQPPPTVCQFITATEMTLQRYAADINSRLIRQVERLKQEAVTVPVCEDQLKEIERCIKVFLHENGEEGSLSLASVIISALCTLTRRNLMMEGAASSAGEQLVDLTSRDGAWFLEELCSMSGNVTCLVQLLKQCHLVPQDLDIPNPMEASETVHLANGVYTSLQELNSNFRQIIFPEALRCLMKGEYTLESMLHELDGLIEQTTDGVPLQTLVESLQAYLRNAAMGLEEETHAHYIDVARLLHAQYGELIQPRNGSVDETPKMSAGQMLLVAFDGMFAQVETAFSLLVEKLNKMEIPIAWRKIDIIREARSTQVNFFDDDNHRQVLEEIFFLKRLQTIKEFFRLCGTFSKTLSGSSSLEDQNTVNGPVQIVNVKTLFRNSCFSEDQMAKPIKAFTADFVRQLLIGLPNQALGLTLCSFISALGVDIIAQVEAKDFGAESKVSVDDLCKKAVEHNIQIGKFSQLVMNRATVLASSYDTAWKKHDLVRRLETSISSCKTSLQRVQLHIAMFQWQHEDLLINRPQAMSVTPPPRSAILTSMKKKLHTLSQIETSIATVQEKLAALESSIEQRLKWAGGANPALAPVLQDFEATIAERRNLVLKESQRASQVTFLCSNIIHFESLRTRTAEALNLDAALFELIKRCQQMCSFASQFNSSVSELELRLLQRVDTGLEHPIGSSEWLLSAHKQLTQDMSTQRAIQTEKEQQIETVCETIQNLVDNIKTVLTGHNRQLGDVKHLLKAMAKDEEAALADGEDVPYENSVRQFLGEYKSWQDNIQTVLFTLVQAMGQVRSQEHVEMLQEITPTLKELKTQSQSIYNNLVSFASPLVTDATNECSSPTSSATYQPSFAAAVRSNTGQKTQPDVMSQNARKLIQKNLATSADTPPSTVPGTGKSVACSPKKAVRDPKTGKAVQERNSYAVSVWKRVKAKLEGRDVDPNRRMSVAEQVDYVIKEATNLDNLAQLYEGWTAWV

In the case of `CS(=O)(=O)O.[2H]C([2H])([2H])Oc1ccccc1-c1nccc2[nH]c(=O)c(-c3nc4cnc(Cl)cc4[nH]3)cc12` [Example 133, 3-(6-chloro-1H-imidazo[4,5-c]pyridin-2-yl)-5-{2-[(2H3)methyloxy]phenyl}-1,6-naphthyridin-2(1H)-one methanesulfonate], the pIC50 [1] was 8.62, the pEC50 [2] was 7.36 and the Snhg1 fold change ([3]; 12.5 mg/kg oral) was 8.2.
`CS(=O)(=O)O.[2H]C([2H])([2H])Oc1cccc(F)c1-c1nccc2[nH]c(=O)c(-c3nc4cnc(Cl)cc4[nH]3)cc12` [Example 135, 3-(6-chloro-1H-imidazo[4,5-c]pyridin-2-yl)-5-{2-fluoro-6-[(2H3)methyloxy]phenyl}-1,6-naphthyridin-2(1H)-one methanesulfonate] showed a pIC50 [1] of 8.66, a pEC50 [2] of 7.41 and a Snhg1 fold change ([3]; 12.5 mg/kg oral) of 10.
For `CS(=O)(=O)O.[2H]C([2H])([2H])Oc1cccc(F)c1-c1nccc2[nH]c(=O)c(-c3nc4c(CC)nc(Cl)cc4[nH]3)cc12` [Example 136, 3-(6-chloro-4-ethyl-1H-imidazo[4,5-c]pyridin-2-yl)-5-{2-fluoro-6-[(2H3)methyloxy]phenyl}-1,6-naphthyridin-2(1H)-one methanesulfonate], the pIC50 [1] was 9.20, the pEC50 [2] was 8.28 and the Snhg1 fold change ([3]; 10 mg/kg oral) was 4.8.
Compound `CCc1nc(Cl)cc2[nH]c(-c3cc4c(-c5c(O)cccc5F)nccc4[nH]c3=O)nc12.CS(=O)(=O)O` [Example 137, 3-(6-chloro-4-ethyl-1H-imidazo[4,5-c]pyridin-2-yl)-5-(2-fluoro-6-hydroxyphenyl)-1,6-naphthyridin-2(1H)-one methanesulfonate] has a pIC50 [1] of 8.92, a pEC50 [2] of 8.00 and a Snhg1 fold change ([3]; 25 mg/kg oral) of 5.1.
For `CCc1nc(Cl)cc2[nH]c(-c3cc4c(-c5cnc(C6CC6)cc5OC)nccc4[nH]c3=O)nc12.CS(=O)(=O)O` [Example 138, 3-(6-chloro-4-ethyl-1H-imidazo[4,5-c]pyridin-2-yl)-5-(6-cyclopropyl-4-methoxypyridin-3-yl)-1,6-naphthyridin-2(1H)-one methanesulfonate], the pIC50 [1] was 9.44, the pEC50 [2] was 8.74 and the Snhg1 fold change ([3]; 10 mg/kg oral) was 12.
`CCc1cc(OC)c(-c2nccc3[nH]c(=O)c(-c4nc5c(CC)nc(Cl)cc5[nH]4)cc23)cn1.CS(=O)(=O)O` [Example 139, 3-(6-chloro-4-ethyl-1H-imidazo[4,5-c]pyridin-2-yl)-5-(6-ethyl-4-methoxypyridin-3-yl)-1,6-naphthyridin-2(1H)-one methanesulfonate] was tested, and the pIC50 [1] was 9.51, the pEC50 [2] was 8.37 and the Snhg1 fold change ([3]; 10 mg/kg oral) was 7.5.
`COc1cc(C2CC2)ncc1-c1nccc2[nH]c(=O)c(-c3nc4c(C)nc(Cl)cc4[nH]3)cc12.CS(=O)(=O)O` [Example 140, 3-(6-chloro-4-methyl-1H-imidazo[4,5-c]pyridin-2-yl)-5-(6-cyclopropyl-4-methoxypyridin-3-yl)-1,6-naphthyridin-2(1H)-one methanesulfonate] gave a pIC50 [1] of 9.00, a pEC50 [2] of 8.06 and a Snhg1 fold change ([3]; 10 mg/kg oral) of 6.3.
Compound `CCc1nc(Cl)cc2[nH]c(-c3cc4c(-c5cnc(C(F)F)cc5OC)nccc4[nH]c3=O)nc12.CS(=O)(=O)O` [Example 141, 3-(6-chloro-4-ethyl-1H-imidazo[4,5-c]pyridin-2-yl)-5-[6-(difluoromethyl)-4-methoxypyridin-3-yl]-1,6-naphthyridin-2(1H)-one methanesulfonate] has a pIC50 [1] of 9.43, a pEC50 [2] of 8.51 and a Snhg1 fold change ([3]; 10 mg/kg oral) of 8.4.
In the case of `COc1ncccc1-c1nccc2[nH]c(=O)c(-c3nc4c(NCC(F)(F)F)nc(Cl)cc4[nH]3)cc12.CS(=O)(=O)O` [Example 142, 3-{6-chloro-4-[(2,2,2-trifluoroethyl)amino]-1H-imidazo[4,5-c]pyridin-2-yl}-5-(2-methoxypyridin-3-yl)-1,6-naphthyridin-2(1H)-one methanesulfonate], the pIC50 [1] was 9.20, the pEC50 [2] was 8.43 and the Snhg1 fold change ([3]; 10 mg/kg oral) was 11.
With `COc1ncccc1-c1nccc2[nH]c(=O)c(-c3nc4c(NCC(F)F)nc(Cl)cc4[nH]3)cc12.CS(=O)(=O)O` [Example 143, 3-{6-chloro-4-[(2,2-difluoroethyl)amino]-1H-imidazo[4,5-c]pyridin-2-yl}-5-(2-methoxypyridin-3-yl)-1,6-naphthyridin-2(1H)-one methanesulfonate] the pIC50 [1] was 9.07, the pEC50 [2] was 7.92 and the Snhg1 fold change ([3]; 10 mg/kg oral) was 8.5.
`COc1cc(OC)c(-c2nccc3[nH]c(=O)c(-c4nc5c(C)nc(Cl)cc5[nH]4)cc23)cn1.CS(=O)(=O)O` [Example 144, 3-(6-chloro-4-methyl-1H-imidazo[4,5-c]pyridin-2-yl)-5-(4,6-dimethoxypyridin-3-yl)-1,6-naphthyridin-2(1H)-one methanesulfonate] showed a pIC50 [1] of 9.02, a pEC50 [2] of 7.72 and a Snhg1 fold change ([3]; 30 mg/kg oral) of 4.8.
For `CCc1nc(Cl)cc2[nH]c(-c3cc4c(-c5cnc(C(F)(F)F)cc5OC)nccc4[nH]c3=O)nc12.CS(=O)(=O)O` [Example 145, 3-(6-chloro-4-ethyl-1H-imidazo[4,5-c]pyridin-2-yl)-5-[4-methoxy-6-(trifluoromethyl)pyridin-3-yl]-1,6-naphthyridin-2(1H)-one methanesulfonate], the pIC50 [1] was 8.92, the pEC50 [2] was 8.51 and the Snhg1 fold change ([3]; 10 mg/kg oral) was 8.9.
Work on `CCc1nc(Cl)cc2[nH]c(-c3cc4c(-c5cnc(OC(F)F)cc5OC)nccc4[nH]c3=O)nc12.CS(=O)(=O)O` [Example 146, 3-(6-chloro-4-ethyl-1H-imidazo[4,5-c]pyridin-2-yl)-5-[6-(difluoromethoxy)-4-methoxypyridin-3-yl]-1,6-naphthyridin-2(1H)-one methanesulfonate] yielded a pIC50 [1] of 9.31, a pEC50 [2] of 8.42 and a Snhg1 fold change ([3]; 10 mg/kg oral) of 10.
Work on `CCc1nc(Cl)cc2[nH]c(-c3cc4c(-c5cnc(C(C)(F)F)cc5OC)nccc4[nH]c3=O)nc12.CS(=O)(=O)O` [Example 147, 3-(6-chloro-4-ethyl-1H-imidazo[4,5-c]pyridin-2-yl)-5-[6-(1,1-difluoroethyl)-4-methoxypyridin-3-yl]-1,6-naphthyridin-2(1H)-one methanesulfonate] yielded a pIC50 [1] of 9.17, a pEC50 [2] of 8.41 and a Snhg1 fold change ([3]; 10 mg/kg oral) of 9.5.
In the case of `CCc1nc(Cl)cc2[nH]c(-c3cc4c(-c5c(C)nn(C(F)F)c5C)nccc4[nH]c3=O)nc12.CS(=O)(=O)O` [Example 148, 3-(6-chloro-4-ethyl-1H-imidazo[4,5-c]pyridin-2-yl)-5-[1-(difluoromethyl)-3,5-dimethyl-1H-pyrazol-4-yl]-1,6-naphthyridin-2(1H)-one methanesulfonate], the pIC50 [1] was 9.14, the pEC50 [2] was 7.92 and the Snhg1 fold change ([3]; 10 mg/kg oral) was 5.8.
For `CS(=O)(=O)O.Cc1nn(C(F)F)c(C)c1-c1nccc2[nH]c(=O)c(-c3nc4c(N5CC[C@H]5C)nc(Cl)cc4[nH]3)cc12` [Example 149, 3-{6-chloro-4-[(2R)-2-methylazetidin-1-yl]-1H-imidazo[4,5-c]pyridin-2-yl}-5-[1-(difluoromethyl)-3,5-dimethyl-1H-pyrazol-4-yl]-1,6-naphthyridin-2(1H)-one methanesulfonate], the pIC50 [1] was 9.17, the pEC50 [2] was 9.21 and the Snhg1 fold change ([3]; 10 mg/kg oral) was 12.
For `CS(=O)(=O)O.Cc1c(-c2nccc3[nH]c(=O)c(-c4nc5c(N[C@H](C)C(F)(F)F)nc(Cl)cc5[nH]4)cc23)cnn1C` [Example 152, 3-(6-chloro-4-{[(2R)-1,1,1-trifluoropropan-2-yl]amino}-1H-imidazo[4,5-c]pyridin-2-yl)-5-(1,5-dimethyl-1H-pyrazol-4-yl)-1,6-naphthyridin-2(1H)-one methanesulfonate], the pIC50 [1] was 8.96, the pEC50 [2] was 8.40 and the Snhg1 fold change ([3]; 10 mg/kg oral) was 7.9.
`CS(=O)(=O)O.Cc1c(-c2nccc3[nH]c(=O)c(-c4nc5c(C6CCOCC6)nc(Cl)cc5[nH]4)cc23)c(C2CC2)nn1C(F)F` [Example 153, 3-[6-chloro-4-(tetrahydro-2H-pyran-4-yl)-1H-imidazo[4,5-c]pyridin-2-yl]-5-[3-cyclopropyl-1-(difluoromethyl)-5-methyl-1H-pyrazol-4-yl]-1,6-naphthyridin-2(1H)-one methanesulfonate] gave a pIC50 [1] of 9.02, a pEC50 [2] of 8.29 and a Snhg1 fold change ([3]; 10 mg/kg oral) of 6.9.
